According to ChEMBL document CHEMBL5365534, “Discovery of a Novel Ketohexokinase Inhibitor with Improved Drug Distribution in Target Tissue for the Treatment of Fructose Metabolic Disease” (J Med Chem, 2023):
Converted amounts (≈) assume the structure as drawn.

How the values were obtained:
[1] = target: T1, Ketohexokinase (Homo sapiens, UniProt P50053)
T1 sequence (P50053 whole entry): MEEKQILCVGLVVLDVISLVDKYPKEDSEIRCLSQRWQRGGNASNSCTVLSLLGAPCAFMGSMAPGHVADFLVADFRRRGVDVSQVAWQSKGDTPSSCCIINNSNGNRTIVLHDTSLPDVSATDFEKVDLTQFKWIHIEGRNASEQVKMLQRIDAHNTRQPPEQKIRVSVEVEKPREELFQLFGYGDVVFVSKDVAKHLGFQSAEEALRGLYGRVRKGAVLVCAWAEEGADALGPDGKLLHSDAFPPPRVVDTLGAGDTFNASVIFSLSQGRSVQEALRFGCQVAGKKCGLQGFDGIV

[2] = physchem
[3] = physchem; settings: buffer, pH 7.4
[4] = in vitro; settings: human, Caco-2
[5] = in vitro; settings: human, Caco-2; remark: listed apart in the source
[6] = in vitro; settings: human, liver microsomes
[7] = in vitro; settings: rat, liver microsomes
[8] = in vitro; settings: dog, liver microsomes

Row | IC50 [1] [nM] | solubility kinetic [2] [µM] | logD [3] | Papp A→B at 2 h, 10 µM [4] [×10⁻⁶ cm/s] | efflux ratio [5] | Kinetic_solubility | microsomal CLint at 2 h, 1 µM [6] [µL/min/mg] | microsomal CLint at 2 h, 1 µM [7] [µL/min/mg] | microsomal CLint at 2 h, 1 µM [8] [µL/min/mg] | SMILES
1 | 49 | 999 (≈ 352 µg/mL) | 0.01 | 1.47 | 11.2 | – | – | – | – | C[C@H]1CCN1c1nc(N2CC[C@H](CC(=O)O)C2)c2c(n1)C(F)(F)CC2
2 | > 1000 | – | – | – | – | Not Determined(Insoluble) | – | – | – | C[C@H]1CCN1c1nc(N2CCC(C)(CC(=O)O)C2)cc(C(F)(F)F)c1C#N (some centres not stated)
3 | 849 | – | – | – | – | Not Determined(Insoluble) | – | – | – | C[C@H]1CCN1c1nc(N2CC[C@H](CCC(=O)O)C2)cc(C(F)(F)F)n1
4 | 89.5 | – | – | – | – | Not Determined(Insoluble) | – | – | – | C[C@H]1CCN1c1nc(N2CC[C@H](CCC(=O)O)C2)c2c(n1)C(F)(F)CCC2
5 | > 1000 | – | – | – | – | Not Determined(Insoluble) | – | – | – | C[C@H]1CCN1c1nc(N2CCC3(CC3C(=O)O)C2)cc(C(F)(F)F)n1 (some centres not stated)
6 | > 1000 | – | – | – | – | Not Determined(Insoluble) | – | – | – | O=C(O)CC[C@H]1CCN(c2nc(N3CC4CCCC43)nc3c2CCC3(F)F)C1 (some centres not stated)
7 | 53.9 | > 1000 | -1.1 | 0.23 | 19.9 | – | – | – | – | C[C@H]1CCN1c1nc(N2CC[C@H](OCC(=O)O)C2)c2c(n1)C(F)(F)CC2
8 | 21.9 | 230 (≈ 90.5 µg/mL) | 2.31 | 18.3 | 1.13 | – | 10.4 | – | – | C[C@H]1CCN1c1nc(N2C[C@H]3CC[C@H](C(=O)O)[C@H]3C2)cc(C(F)(F)F)c1C#N (racemic)
9 | 138 | 889 (≈ 342 µg/mL) | 0.93 | 0.09 | 218 | – | – | – | – | C[C@H]1CCN1c1nc(N2C[C@@H](CC(=O)O)[C@H](O)C2)cc(C(F)(F)F)c1C#N (racemic)
10 | – | – | – | – | – | – | 6.2 | 4.5 | 5.5 | C[C@H]1CCN1c1nc(N2CCC3(CC(C(=O)O)C3)C2)cc(C(F)(F)F)c1C#N (some centres not stated)
11 | 34.7 | > 1000 | 0.58 | 6.13 | 4.54 | – | – | – | – | C[C@H]1CCN1c1nc(N2C[C@H]3CC[C@H](C(=O)O)[C@H]3C2)c2c(n1)C(F)(F)CC2 (racemic)
12 | 25.9 | > 1000 | 0.86 | 5.14 | 7.81 | – | – | 64.6 | – | O=C(O)CC[C@H]1CCN(c2nc(N3CC[C@@H]3C(F)(F)F)nc3c2CCC3(F)F)C1
13 | 108 | > 1000 | 1.48 | 10.9 | 2.48 | – | – | – | – | C[C@H]1CCN1c1nc(N2CC(CC(=O)O)C(F)(F)C2)cc(C(F)(F)F)c1C#N (some centres not stated)
14 | 108 | > 1000 | 1.73 | 16.2 | 1.78 | – | 4.6 | 5.6 | – | C[C@H]1CCN1c1nc(N2CCC3(CC3C(=O)O)C2)cc(C(F)(F)F)c1C#N (some centres not stated)
